Experimental data as given in publication PMC4780440 (Organic & biomolecular chemistry, 2015).
Entries after “also recorded” stand apart in the source; their conditions may differ. Square brackets hold non-standard residues; d marks the D form. Peptide text beside a SMILES is read from it. * marks the point of attachment. X1 = O=C(O)CN(CCN(CC(=O)O)CC(=O)O)CCN(CC(=O)O)CC(=O)NCCCOCCOCCOCCCNC(=O)COCC(=O)*; Nle = CCCC[C@H](N)C(=O)O

Columns and labels:
[1] = molecular target: T1, hMC4R (Homo sapiens, UniProt P32245); experiment: Competitive binding assay against TRF probe 19, six-well plate protocol; details: for inhibition of the binding and uptake of probe 19: over the concentration range tested (10 μM–0.10 nM), probe 19 20 nM; for Relative Potency: compared to the monovalent MSH(4) construct with the same scaffold core; for Ki lower than / inhibition higher than the corresponding monovalent molecule: divalent versus monovalent, against probe 19
[2] = molecular target: T1, hMC4R; details: saturation binding assays using older protocol (96-well plates); ref [14]; cited from earlier work

T1 sequence (P32245 whole entry): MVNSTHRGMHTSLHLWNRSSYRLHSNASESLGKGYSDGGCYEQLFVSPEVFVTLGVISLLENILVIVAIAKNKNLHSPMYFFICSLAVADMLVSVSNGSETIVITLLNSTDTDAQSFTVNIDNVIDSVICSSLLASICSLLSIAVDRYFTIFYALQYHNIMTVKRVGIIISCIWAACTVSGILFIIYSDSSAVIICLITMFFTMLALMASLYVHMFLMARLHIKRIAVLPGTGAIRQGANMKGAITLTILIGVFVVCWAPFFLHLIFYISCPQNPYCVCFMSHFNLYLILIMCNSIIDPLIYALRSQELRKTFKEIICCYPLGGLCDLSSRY

| Ki [1] [nM] | Relative Potency [1] | Ki lower than / inhibition higher than the corresponding monovalent molecule [1] [fold] | Compound | inhibition of the binding and uptake of probe 19 [1] | Kd [2] [nM] |
| --- | --- | --- | --- | --- | --- |
| 990 ± 140 | 1 | – | N=C(N)NCCC[C@H](NC(=O)[C@@H](Cc1ccccc1)NC(=O)[C@H](Cc1c[nH]cn1)NC(=O)CCCCCn1cc(COc2cc(OCc3cn(CCCCCC(=O)N[C@@H](CO)C(N)=O)nn3)cc(OCc3cn(CCCCCC(=O)N[C@@H](CO)C(N)=O)nn3)c2)nn1)C(=O)N[C@@H](Cc1c[nH]c2ccccc12)C(N)=O [Compound 14a, 6,6′-(4,4′-(((5-((1-((6S,9R,12S)-12-((1H-Imidazol-4-yl)methyl)-1-amino-6-(((S)-1-amino-3-(1H-indol-3-yl)-1-oxopropan-2-yl)carbamoyl)-9-benzyl-1-imino-8,11,14-trioxo-2,7,10,13-tetraazanonadecan-19-yl)-1H-1,2,3-triazol-4-yl)methoxy)-1,3-phenylene)bis(oxy))bis(methylene))bis(1H-1,2,3-triazole-4,1-diyl))bis(N-(1-amino-3-hydroxy-1-oxopropan-2-yl)hexanamide)] | – | – |
| 91 ± 13 | 11 | 11 | N=C(N)NCCC[C@H](NC(=O)[C@@H](Cc1ccccc1)NC(=O)[C@H](Cc1c[nH]cn1)NC(=O)CCCCCn1cc(COc2cc(OCc3cn(CCCCCC(=O)N[C@@H](CO)C(N)=O)nn3)cc(OCc3cn(CCCCCC(=O)N[C@@H](Cc4c[nH]cn4)C(=O)N[C@H](Cc4ccccc4)C(=O)N[C@@H](CCCNC(=N)N)C(=O)N[C@@H](Cc4c[nH]c5ccccc45)C(N)=O)nn3)c2)nn1)C(=O)N[C@@H](Cc1c[nH]c2ccccc12)C(N)=O [Compound 14b, 6,6′-(4,4′-(((5-((1-(6-((1-Amino-3-hydroxy-1-oxopropan-2-yl)amino)-6-oxohexyl)-1H-1,2,3-triazol-4-yl)methoxy)-1,3-phenylene)bis(oxy))bis(methylene))bis(1H-1,2,3-triazole-4,1-diyl))bis(N-((S)-1-(((R)-1-(((S)-1-(((S)-1-amino-3-(1H-indol-3-yl)-1-oxopropan-2-yl)amino)-5-guanidino-1-oxopentan-2-yl)amino)-1-oxo-3-phenylpropan-2-yl)amino)-3-(1H-imidazol-4-yl)-1-oxopropan-2-yl)hexanamide)] | – | – |
| 25 ± 4 | – | – | N=C(N)NCCC[C@H](NC(=O)[C@@H](Cc1ccccc1)NC(=O)[C@H](Cc1c[nH]cn1)NC(=O)CCCCCn1cc(CN2CCN(Cc3cn(CCCCCC(=O)N[C@@H](Cc4c[nH]cn4)C(=O)N[C@H](Cc4ccccc4)C(=O)N[C@@H](CCCNC(=N)N)C(=O)N[C@@H](Cc4c[nH]c5ccccc45)C(N)=O)nn3)CCN(Cc3cn(CCCCCC(=O)N[C@@H](Cc4c[nH]cn4)C(=O)N[C@H](Cc4ccccc4)C(=O)N[C@@H](CCCNC(=N)N)C(=O)N[C@@H](Cc4c[nH]c5ccccc45)C(N)=O)nn3)CC2)nn1)C(=O)N[C@@H](Cc1c[nH]c2ccccc12)C(N)=O [Compound 18, 6,6′,6″-(4,4′,4″-((1,4,7-Triazonane-1,4,7-triyl)tris(methylene))tris(1H-1,2,3-triazole-4,1-diyl))tris(N-((S)-1-(((R)-1-(((S)-1-(((S)-1-amino-3-(1H-indol-3-yl)-1-oxopropan-2-yl)amino)-5-guanidino-1-oxopentan-2-yl)amino)-1-oxo-3-phenylpropan-2-yl)amino)-3-(1H-imidazol-4-yl)-1-oxopropan-2-yl)hexanamide)] | – | – |
| 36 ± 4 | 61 | – | N=C(N)NCCC[C@H](NC(=O)[C@@H](Cc1ccccc1)NC(=O)[C@H](Cc1c[nH]cn1)NC(=O)CCCCCn1cc(CN(Cc2cn(CCCCCC(=O)N[C@@H](Cc3c[nH]cn3)C(=O)N[C@H](Cc3ccccc3)C(=O)N[C@@H](CCCNC(=N)N)C(=O)N[C@@H](Cc3c[nH]c4ccccc34)C(N)=O)nn2)Cc2cn(CCCCCC(=O)N[C@@H](Cc3c[nH]cn3)C(=O)N[C@H](Cc3ccccc3)C(=O)N[C@@H](CCCNC(=N)N)C(=O)N[C@@H](Cc3c[nH]c4ccccc34)C(N)=O)nn2)nn1)C(=O)N[C@@H](Cc1c[nH]c2ccccc12)C(N)=O [Compound 16c, 6,6′,6″-(4,4′,4″-(Nitrilotris(methylene))tris(1H-1,2,3-triazole-4,1-diyl))tris(N-((S)-1-(((R)-1-(((S)-1-(((S)-1-amino-3-(1H-indol-3-yl)-1-oxopropan-2-yl)amino)-5-guanidino-1-oxopentan-2-yl)amino)-1-oxo-3-phenylpropan-2-yl)amino)-3-(1H-imidazol-4-yl)-1-oxopropan-2-yl)hexanamide)] | – | – |

Continued, compound first:

| Compound | Ki [1] [nM] | Relative Potency [1] | Ki lower than / inhibition higher than the corresponding monovalent molecule [1] [fold] | inhibition of the binding and uptake of probe 19 [1] | Kd [2] [nM] |
| --- | --- | --- | --- | --- | --- |
| NC(=O)[C@H](CO)NC(=O)CCCCCn1cc(CN(Cc2cn(CCCCCC(=O)N[C@@H](CO)C(N)=O)nn2)Cc2cn(CCCCCC(=O)N[C@@H](CO)C(N)=O)nn2)nn1 [Compound 15a, 6,6′,6″-(4,4′,4″-(Nitrilotris(methylene))tris(1H-1,2,3-triazole-4,1-diyl))tris(N-((S)-1-amino-3-hydroxy-1-oxopropan-2-yl)hexanamide)] | – | – | – | did not inhibit; also recorded: not competitive inhibitors | – |
| N=C(N)NCCC[C@H](NC(=O)[C@@H](Cc1ccccc1)NC(=O)[C@H](Cc1c[nH]cn1)NC(=O)CCCCCn1cc(CN(Cc2cn(CCCCCC(=O)N[C@@H](CO)C(N)=O)nn2)Cc2cn(CCCCCC(=O)N[C@@H](Cc3c[nH]cn3)C(=O)N[C@H](Cc3ccccc3)C(=O)N[C@@H](CCCNC(=N)N)C(=O)N[C@@H](Cc3c[nH]c4ccccc34)C(N)=O)nn2)nn1)C(=O)N[C@@H](Cc1c[nH]c2ccccc12)C(N)=O [Compound 16b, 6,6′-(4,4′-((((1-(6-(((S)-1-Amino-3-hydroxy-1-oxopropan-2-yl)amino)-6-oxohexyl)-1H-1,2,3-triazol-4-yl)methyl)azanediyl)bis(methylene))bis(1H-1,2,3-triazole-4,1-diyl))bis(N-((S)-1-(((R)-1-(((S)-1-(((S)-1-amino-3-(1H-indol-3-yl)-1-oxopropan-2-yl)amino)-5-guanidino-1-oxopentan-2-yl)amino)-1-oxo-3-phenylpropan-2-yl)amino)-3-(1H-imidazol-4-yl)-1-oxopropan-2-yl)hexanamide)] | 69 ± 12 | 32 | 32 | – | – |
| CCCC[C@H](NC(=O)[C@H](CO)NC(=O)COCC(=O)NCCCOCCOCCOCCCNC(=O)CN(CCN(CCN(CC(=O)O)CC(=O)O)CC(=O)O)CC(=O)O)C(=O)N[C@@H](CCC(=O)O)C(=O)N[C@@H](Cc1c[nH]cn1)C(=O)N[C@H](Cc1ccccc1)C(=O)N[C@@H](CCCNC(=N)N)C(=O)N[C@@H](Cc1c[nH]c2ccccc12)C(N)=O [Compound 19, Eu-DTPA-PEGO-MSH(7)-NH2] (X1-S[Nle]EH[dF]RW-NH2) | – | – | – | – | 27 ± 4 |
| NC(=O)[C@H](CO)NC(=O)CCCCCn1cc(COc2cc(OCc3cn(CCCCCC(=O)N[C@@H](CO)C(N)=O)nn3)cc(OCc3cn(CCCCCC(=O)N[C@@H](CO)C(N)=O)nn3)c2)nn1 [Compound 12a, 6,6′,6″-(4,4′,4″-((Benzene-1,3,5-triyltris(oxy))tris(methylene))tris(1H-1,2,3-triazole-4,1-diyl))tris(N-((S)-1-amino-3-hydroxy-1-oxopropan-2-yl)hexanamide)] | – | – | – | did not inhibit; also recorded: not competitive inhibitors | – |
